The values that follow come from ChEMBL document CHEMBL3886855, “Pyrazine derivatives” (2016).

The structures appear in SMILES notation. Bounds are passed on as bounds.

For assay [1], the target named is Cannabinoid receptor 1 (Homo sapiens, UniProt P21554). Nature of the assay: (§1) cAMP Assay: CHO cells expressing human CB1 or CB2 receptors are seeded 17-24 hours prior to the experiment 50.000 cells per well in a black 96 well plate with flat clear bottom (Corning Costar #3904) in DMEM (Invitrogen No. 31331), 1×HT supplement, with 10% fetal calf serum and incubated at 5% CO2 and 37° C. in a humidified incubator. The growth medium was exchanged with Krebs Ringer Bicarbonate buffer with 1 mM IBMX and incubated at 30° C. for 30 min. Compounds were added to a final assay volume of 100 μl and incubated for 30 min at 30° C. Using the cAMP-Nano-TRF detection kit the assay (Roche Diagnostics) was stopped by the addition of 50 μl lysis reagent (Tris, NaCl, 1.5% Triton X100, 2.5% NP40, 10% NaN3) and 50 μl detection solutions (20 μM mAb Alexa700-cAMP 1:1, and 48 μM Ruthenium-2-AHA-cAMP) and shaken for 2 h at room temperature. The time-resolved energy transfer is measured by a TRF reader (Evotec Technologies GmbH), equipped with a ND:YAG laser as excitation source. The plate is measured twice with the excitation at 355 nm and at the emission with a delay of 100 ns and a gate of 100 ns, total exposure time 10s at 730 (bandwidth 30 nm) or 645 nm (bandwidth 75 nm), respectively. Format: functional, cell-based.

Assay [2] addresses Cannabinoid receptor 2 (Homo sapiens, UniProt P34972). The assay is described as §1. Format: functional, cell-based.

Sequence of Cannabinoid receptor 1 (P21554 whole entry): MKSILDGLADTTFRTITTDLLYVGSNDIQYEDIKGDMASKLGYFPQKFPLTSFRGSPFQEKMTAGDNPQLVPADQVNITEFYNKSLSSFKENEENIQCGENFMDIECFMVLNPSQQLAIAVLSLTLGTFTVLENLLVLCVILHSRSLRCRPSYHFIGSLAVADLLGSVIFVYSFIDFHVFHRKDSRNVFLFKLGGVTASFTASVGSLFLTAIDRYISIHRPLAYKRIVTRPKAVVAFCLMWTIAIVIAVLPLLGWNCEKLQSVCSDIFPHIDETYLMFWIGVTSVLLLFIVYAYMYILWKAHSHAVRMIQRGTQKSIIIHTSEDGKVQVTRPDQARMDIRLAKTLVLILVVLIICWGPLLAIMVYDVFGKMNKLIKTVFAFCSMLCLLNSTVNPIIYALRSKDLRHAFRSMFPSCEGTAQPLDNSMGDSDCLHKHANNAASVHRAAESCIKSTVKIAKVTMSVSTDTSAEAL
Sequence of Cannabinoid receptor 2 (P34972 whole entry): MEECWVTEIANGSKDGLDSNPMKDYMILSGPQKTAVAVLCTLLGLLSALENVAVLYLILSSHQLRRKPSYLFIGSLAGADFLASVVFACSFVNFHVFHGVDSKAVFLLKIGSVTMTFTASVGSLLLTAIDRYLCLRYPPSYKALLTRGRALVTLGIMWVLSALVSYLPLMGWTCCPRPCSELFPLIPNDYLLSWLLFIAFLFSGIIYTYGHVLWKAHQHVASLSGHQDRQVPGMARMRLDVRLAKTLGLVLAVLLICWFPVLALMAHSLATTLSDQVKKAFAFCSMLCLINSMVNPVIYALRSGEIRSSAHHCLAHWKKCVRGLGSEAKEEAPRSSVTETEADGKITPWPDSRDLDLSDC

A word on the EC50: it is the midpoint of the concentration-response curve. Read a high EC50 as lower potency in that assay. For the compound `CC(C)(O)[C@H](CC1CC1)NC(=O)c1cnc(C2CC2)c(OCC2CC2)n1`, the EC50 in assay [1] is greater than 10 µM; in assay [2] it was 0.198 µM. The matching figures for `O=C(NC1(CO)CCCCC1)c1cnc(N2CC(F)(F)C2)c(OCC2CC2)n1`: greater than 10 µM and 0.0018 µM. The matching figures for `O=C(NN1CCCCC1)c1cnc(C2CC2)c(OCC2CC2)n1`: greater than 10 µM and 0.327 µM. As to `CNC(=O)C(CC1CCC1)NC(=O)c1cnc(N2CC(F)(F)C2)c(OCC2CC2)n1` (centres undefined), the concentration for a half-maximal effect (EC50) in assay [1] is greater than 10 µM; in assay [2], 0.0517 µM.

`CC(C)(CCc1ccncc1)NC(=O)c1cnc(C2CC2)c(OCC2CC2)n1` showed an EC50 in assay [2] of 0.28 µM.
